In patent publication US7462600B2, “Macrolides” (Pfizer Inc, priority 2004, dated 2008):
In brackets after ≈: the same amount, converted by molar mass.

Columns and labels:
Type in all cases: cell-based
[1] = system: Streptococcus pyogenes 1079; assay: MIC, microtiter broth dilution (NCCLS M100-S14), S. pyogenes 1079 (ermB); settings: S. pyogenes 1079 (ermB)
Outline: (§1)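 Stock solutions of 40 mg/ml in DMSO were used. MIC values came from microtiter-tray broth dilution following NCCLS M100-S14 guidelines.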

[2] = system: Haemophilus influenzae 1218; assay: MIC, microtiter broth dilution (NCCLS M100-S14), H. influenzae 1218 (susceptible); settings: H. influenzae 1218 (susceptible)
Outline: as §1

[3] = system: Streptococcus pneumoniae 1175; settings: S. pneumoniae 1175 (mefA); microtiter broth dilution
Outline: as §1

[4] = system: Streptococcus pneumoniae 1095; settings: S. pneumoniae 1095 (ermB); microtiter broth dilution
Outline: as §1

[5] = system: Streptococcus pneumoniae 1016; assay: MIC, microtiter broth dilution (NCCLS M100-S14), S. pneumoniae 1016 (susceptible); settings: S. pneumoniae 1016 (susceptible)
Outline: as §1

| Structure (SMILES) | MIC S. pyogenes 1079 [1] | MIC H. influenzae 1218 [2] | MIC S. pneumo. 1175 [3] | MIC S. pneumo. 1095 [4] | MIC S. pneumo. 1016 [5] |
| --- | --- | --- | --- | --- | --- |
| CC[C@H]1OC(=O)[C@H](C)C(=O)[C@H](C)[C@@H](O[C@@H]2O[C@H](C)C[C@H](N(C)C)[C@H]2O)[C@](C)(OC)C[C@@H](C)C(=O)[C@H](C)[C@H]2N(C3CCN(Cc4cccc5[nH]cnc45)C3)C(=O)O[C@]12C.O=CO (stereo partly shown) [Example 8.01, (1H-benzo[d]imidazo-4-yl)methyl] | >64.00 µg/mL | 8 µg/mL | 0.25 µg/mL | >64.00 µg/mL | <0.06 µg/mL |
| CCC1OC(=O)C(C)C(=O)C(C)C(OC2OC(C)CC(N(C)C)C2O)C(C)(OC)CC(C)C(=O)C(C)C2N(C3CCN(Cc4cccc5ncccc45)C3)C(=O)OC12C [Example 9.02, 3-descladinosyl-11,12-dideoxy-6-O-methyl-3-oxo-12,11-(oxycarbonyl-(1-((quinolin-5-yl)-methyl)-(R)-pyrrolidin-3-yl)-imino)-erythromycin A] | 8 µg/mL (≈ 9.72 µM) | 0.5 µg/mL (≈ 0.608 µM) | 0.12 µg/mL (≈ 0.146 µM) | <0.06 µg/mL | <0.06 µg/mL |
| CCC1OC(=O)C(C)C(=O)C(C)C(OC2OC(C)CC(N(C)C)C2O)C(C)(OC)CC(C)C(=O)C(C)C2N(C3CCN(Cc4c[nH]c5ncccc45)C3)C(=O)OC12C [Example 9.03, 3-descladinosyl-11,12-dideoxy-6-O-methyl-3-oxo-12,11-(oxycarbonyl-(1-((1H-pyrrolo[2,3-b]pyridin-3-yl)-methyl)-(R)-pyrrolidin-3-yl)-imino)-erythromycin A] | 1 µg/mL (≈ 1.23 µM) | 0.12 µg/mL (≈ 0.148 µM) | 0.5 µg/mL (≈ 0.616 µM) | <0.06 µg/mL | <0.06 µg/mL |
| CCC1OC(=O)C(C)C(=O)C(C)C(OC2OC(C)CC(N(C)C)C2O)C(C)(OC)CC(C)C(=O)C(C)C2N(C3CCN(Cc4cnc5ccccc5c4)C3)C(=O)OC12C (stereo not shown) [Example 9.04, (quinolin-3-yl)methyl] | 32 µg/mL (≈ 38.9 µM) | 0.5 µg/mL (≈ 0.608 µM) | <0.06 µg/mL | <0.06 µg/mL | <0.06 µg/mL |
| CCC1OC(=O)C(C)C(=O)C(C)C(OC2OC(C)CC(N(C)C)C2O)C(C)(OC)CC(C)C(=O)C(C)C2N(C3CCN(Cc4ccnc5ncccc45)C3)C(=O)OC12C [Example 9.05, 3-descladinosyl-11,12-dideoxy-6-O-methyl-3-oxo-12,11-(oxycarbonyl-(1-((1,8-naphthyridin-4-yl)-methyl)-(R)-pyrrolidin-3-yl)-imino)erythromycin A] | 8 µg/mL (≈ 9.71 µM) | 8 µg/mL (≈ 9.71 µM) | 0.5 µg/mL (≈ 0.607 µM) | 0.5 µg/mL (≈ 0.607 µM) | <0.06 µg/mL |
| CCC1OC(=O)C(C)C(=O)C(C)C(OC2OC(C)CC(N(C)C)C2O)C(C)(OC)CC(C)C(=O)C(C)C2N(C3CCN(Cc4cccc5cnccc45)C3)C(=O)OC12C [Example 9.07, 3-descladinosyl-11,12-dideoxy-6-O-methyl-3-oxo-12,11-(oxycarbonyl-(1-((isoquinolin-5-yl)-methyl)-(R)-pyrrolidin-3-yl)-imino)erythromycin A] | 2 µg/mL (≈ 2.43 µM) | 1 µg/mL (≈ 1.22 µM) | 0.12 µg/mL (≈ 0.146 µM) | <0.06 µg/mL | <0.06 µg/mL |
| CCC1OC(=O)C(C)C(=O)C(C)C(OC2OC(C)CC(N(C)C)C2O)C(C)(OC)CC(C)C(=O)C(C)C2N(C3CCN(S(=O)(=O)c4cccc5cnccc45)C3)C(=O)OC12C (stereo not shown) [Example 9.08, isoquinoline-5-sulfonyl] | 16 µg/mL (≈ 18.3 µM) | 0.25 µg/mL (≈ 0.286 µM) | 0.12 µg/mL (≈ 0.137 µM) | 4 µg/mL (≈ 4.58 µM) | <0.06 µg/mL |
| CCC1OC(=O)C(C)C(=O)C(C)C(OC2OC(C)CC(N(C)C)C2O)C(C)(OC)CC(C)C(=O)C(C)C2N(C3CCN(Cc4n[nH]c5ccccc45)C3)C(=O)OC12C [Example 9.09, 3-descladinosyl-11,12-dideoxy-6-O-methyl-3-oxo-12,11-(oxycarbonyl-(1-((1H-indazol-3-yl)-methyl)-(R)-pyrrolidin-3-yl)-imino)-erythromycin A] | 2 µg/mL (≈ 2.46 µM) | 0.12 µg/mL (≈ 0.148 µM) | 0.12 µg/mL (≈ 0.148 µM) | 0.25 µg/mL (≈ 0.308 µM) | <0.06 µg/mL |
